Source: ChEMBL document CHEMBL3797055, “Glabridin-chalcone hybrid molecules: drug resistance reversal agent against clinical isolates of methicillin-resistant Staphylococcus aureus” (Medchemcomm, 2016)
Values after ≈ are worked out from the molar mass of the structure shown.

How the values were obtained:
Assay type in all cases: functional
Staphylococcus aureus [1] = test: Antibacterial activity against clinical isolates of methicillin-resistant Staphylococcus aureus P4650 by broth microdilution assay
Staphylococcus aureus [2] = test: Antibacterial activity against clinical isolates of methicillin-resistant Staphylococcus aureus ST10342 by broth microdilution assay
Staphylococcus aureus [3] = test: Antibacterial activity against Staphylococcus aureus MTCC 96 by broth microdilution assay
Staphylococcus aureus [4] = test: Antibacterial activity against clinical isolates of methicillin-resistant Staphylococcus aureus ST10760 by broth microdilution assay
Staphylococcus aureus [5] = test: Antibacterial activity against clinical isolates of methicillin-resistant Staphylococcus aureus P4423 by broth microdilution assay
Staphylococcus aureus [6] = test: Antibacterial activity against clinical isolates of methicillin-resistant Staphylococcus aureus P4629 by broth microdilution assay
Staphylococcus aureus [7] = test: Antibacterial activity against clinical isolates of methicillin-resistant Staphylococcus aureus ST2071 by broth microdilution assay

Structure (SMILES) | MIC (Staphylococcus aureus [1]) | MIC (Staphylococcus aureus [2]) | MIC (Staphylococcus aureus [3]) | MIC (Staphylococcus aureus [4]) | MIC (Staphylococcus aureus [5]) | MIC (Staphylococcus aureus [6]) | MIC (Staphylococcus aureus [7])
COc1ccc(C(=O)/C=C/c2cc([C@@H]3COc4c(ccc5c4C=CC(C)(C)O5)C3)c(OC)cc2OC)cc1 | > 100 µg/mL | > 100 µg/mL | 50 µg/mL (≈ 97.5 µM) | > 100 µg/mL | > 100 µg/mL | > 100 µg/mL | > 100 µg/mL
COc1cc(OC)c([C@@H]2COc3c(cc(/C=C/C(=O)c4ccccc4OC)c4c3C=CC(C)(C)O4)C2)cc1/C=C/C(=O)c1ccccc1OC | 100 µg/mL (≈ 149 µM) | 100 µg/mL (≈ 149 µM) | 50 µg/mL (≈ 74.3 µM) | 100 µg/mL (≈ 149 µM) | 100 µg/mL (≈ 149 µM) | 100 µg/mL (≈ 149 µM) | 100 µg/mL (≈ 149 µM)
COc1cc(OC)c([C@@H]2COc3c(ccc4c3C=CC(C)(C)O4)C2)cc1/C=C/C(=O)c1cc(OC)c(OC)c(OC)c1 | 25 µg/mL (≈ 43.7 µM) | 25 µg/mL (≈ 43.7 µM) | 25 µg/mL (≈ 43.7 µM) | 25 µg/mL (≈ 43.7 µM) | 25 µg/mL (≈ 43.7 µM) | 25 µg/mL (≈ 43.7 µM) | 25 µg/mL (≈ 43.7 µM)
COc1cc(OC)c([C@@H]2COc3c(ccc4c3C=CC(C)(C)O4)C2)cc1/C=C/C(=O)c1ccc[nH]1 | 50 µg/mL (≈ 106 µM) | 50 µg/mL (≈ 106 µM) | 25 µg/mL (≈ 53 µM) | 50 µg/mL (≈ 106 µM) | 50 µg/mL (≈ 106 µM) | 50 µg/mL (≈ 106 µM) | 50 µg/mL (≈ 106 µM)
COc1ccc(C(=O)/C=C/c2cc3c(c4c2OC(C)(C)C=C4)OC[C@@H](c2ccc(OC)cc2OC)C3)c(OC)c1 | > 100 µg/mL | > 100 µg/mL | > 100 µg/mL | > 100 µg/mL | > 100 µg/mL | > 100 µg/mL | > 100 µg/mL
COc1cc(OC)c([C@@H]2COc3c(cc(/C=C/C(=O)c4ccccc4)c4c3C=CC(C)(C)O4)C2)cc1/C=C/C(=O)c1ccccc1 | 25 µg/mL (≈ 40.8 µM) | 25 µg/mL (≈ 40.8 µM) | 25 µg/mL (≈ 40.8 µM) | 25 µg/mL (≈ 40.8 µM) | 25 µg/mL (≈ 40.8 µM) | 25 µg/mL (≈ 40.8 µM) | 25 µg/mL (≈ 40.8 µM)
COc1cc(OC)c([C@@H]2COc3c(ccc4c3C=CC(C)(C)O4)C2)cc1/C=C/C(=O)c1ccccc1OC | > 100 µg/mL | > 100 µg/mL | > 100 µg/mL | > 100 µg/mL | > 100 µg/mL | > 100 µg/mL | > 100 µg/mL
COc1ccc([C@@H]2COc3c(cc(/C=C/C(=O)c4ccccc4OC)c4c3C=CC(C)(C)O4)C2)c(OC)c1 | 25 µg/mL (≈ 48.8 µM) | 50 µg/mL (≈ 97.5 µM) | 25 µg/mL (≈ 48.8 µM) | 50 µg/mL (≈ 97.5 µM) | 50 µg/mL (≈ 97.5 µM) | 25 µg/mL (≈ 48.8 µM) | 50 µg/mL (≈ 97.5 µM)
COc1cc(OC)c([C@@H]2COc3c(ccc4c3C=CC(C)(C)O4)C2)cc1/C=C/C(=O)c1ccco1 | 25 µg/mL (≈ 52.9 µM) | 25 µg/mL (≈ 52.9 µM) | 25 µg/mL (≈ 52.9 µM) | 25 µg/mL (≈ 52.9 µM) | 25 µg/mL (≈ 52.9 µM) | 25 µg/mL (≈ 52.9 µM) | 25 µg/mL (≈ 52.9 µM)
COc1cc(OC)c([C@@H]2COc3c(ccc4c3C=CC(C)(C)O4)C2)cc1/C=C/C(=O)c1ccc(OC)c(OC)c1 | > 100 µg/mL | > 100 µg/mL | 100 µg/mL (≈ 184 µM) | > 100 µg/mL | > 100 µg/mL | > 100 µg/mL | > 100 µg/mL
COc1cc(OC)c([C@@H]2COc3c(ccc4c3C=CC(C)(C)O4)C2)cc1C=O | > 100 µg/mL | > 100 µg/mL | > 100 µg/mL | > 100 µg/mL | > 100 µg/mL | > 100 µg/mL | > 100 µg/mL
COc1ccc([C@@H]2COc3c(cc(/C=C/C(=O)c4cc(OC)c(OC)c(OC)c4)c4c3C=CC(C)(C)O4)C2)c(OC)c1 | 25 µg/mL (≈ 43.7 µM) | 25 µg/mL (≈ 43.7 µM) | 25 µg/mL (≈ 43.7 µM) | 25 µg/mL (≈ 43.7 µM) | 25 µg/mL (≈ 43.7 µM) | 25 µg/mL (≈ 43.7 µM) | 25 µg/mL (≈ 43.7 µM)
COc1ccc([C@@H]2COc3c(cc(/C=C/C(=O)c4ccccc4)c4c3C=CC(C)(C)O4)C2)c(OC)c1 | 25 µg/mL (≈ 51.8 µM) | 25 µg/mL (≈ 51.8 µM) | 25 µg/mL (≈ 51.8 µM) | 25 µg/mL (≈ 51.8 µM) | 25 µg/mL (≈ 51.8 µM) | 25 µg/mL (≈ 51.8 µM) | 25 µg/mL (≈ 51.8 µM)
